Results: patent US20260137698A1, “CYCLIN-DEPENDENT KINASE 7 INHIBITORS” (JOINT STOCK COMPANY «BIOCAD», priority 2022, published 2026)
Read-outs that look alike come from different tables or passages of the source.

Key:
CDK13/Cyclin K = CDK13/Cyclin K (Homo sapiens, UniProt Q14004); assay: Inhibition of CDK13/Cyclin K kinase activity (ADP-Glo); assay type: biochemical
Description: Measurements were carried out in a 5 μl reaction volume using a 384-well plate (Corning Inc., order no. 4513). The analyzed substances were titrated from 50 μM in increments of 4 at 11 concentration points in a normal strength kinase buffer A (Thermo Fisher Scientific Inc, cat. no. PV3189) supplemented with DTT (Sigma, orde. no. 646563-10X.5ML) and prepared with water (Panreac, order no. 701074). Kinase was diluted in an analogous buffer, mixed with test compounds in plate wells and preincubated for 10 minutes at 25° C. Following incubation, a mixture of reaction substrate (CDKtide (SignalChem, order no. C06-58) or Histone H1 (SignalChem, order no. H10-54N) or PDKtide (SignalChem, order no. P10-58) and ATP (SignalChem, order no. V915B) prepared on a normal strength kinase buffer A was added. 1% solution of dimethyl sulfoxide (DMSO) (Sigma-Aldrich, order no. D2438) in the reaction volume was used as a negative control. The final concentrations of all reaction components are shown in Table 5. The plate was centrifuged at 400 rcf (Eppendorf, 5804 R) for 1 minute and incubated for 40-60 minutes at 25° C. The amount of ATP consumed in the kinase reaction was then measured using the ADP-Glo™ detection system. Luminescence signal was measured using Spark 20M tablet multifunction reader (Tecan Group Ltd, Switzerland). IC50 value was calculated using Magellan 7.2 (Tecan Group Ltd, Switzerland) by approximating experimental points by four-parameter model with the optimization by Levenberg-Marquardt:
[formula] • where A is the upper asymptote; D is the lower asymptote; C is IC50, half-maximal inhibitory concentration of kinase, nM; B is the curvature (slope).

[1] = Microsomal stability in mouse liver microsomes (MLM); assay type: in vitro ADME; settings: mouse liver microsomes 0.5 mg/ml, 1 μM compound, NADPH
Description: (§1) The procedure for investigating the metabolism of selected compounds was carried out in microsomal fractions of the liver (of rats, mice, humans) in the presence of a phase I metabolism cofactor (NADPH).
(§2) The rate of enzymatic decomposition of the compound in liver microsomes in in vitro analysis was determined by keeping a reaction mixture comprising 0.5 mg/ml of pooled human, rat or mouse liver microsomes, 1 μM test compound, 1.5 mM […] (Carbosynth, UK, cat. no. NN108711101) and 1.5 mM magnesium chloride in 0.1 M sodium phosphate buffer (pH 7.4) in a solid-state thermostat at 37° C. (XenoTech, USA, order no. H2610, cat. no. R1000, cat. no. M1000). Incubation was carried out in three replicates.
(§3) To determine the stability of compounds under sample preparation conditions, an aliquot in two replicates with the test compound and a microsomal fraction devoid of the NADPH cofactor, which was incubated for 40 minutes at 37° C.
(§4) Reactions were stopped at 0, 10, 20, 30 and 40 min time points by way of adding an ice mixture of acetonitrile:methanol (3:1) comprising an internal standard.
(§5) Samples were then centrifuged to remove the precipitated protein, supernatants were analyzed using HPLC-MS/MS to determine in vitro clearance (CLint) of the compounds. The Agilent 6410 mass spectrometer (Agilent, USA) combined with the Agilent 1260 Infinity II HPLC liquid chromatograph (Agilent, USA) and a cooling autosampler controlled by MassHunter software (Agilent, USA) was used as an HPLC-MS/MS system. Chromatographic analysis was performed on a C18 reversed-phase HPLC column (Agilent, Waters or equivalent) in a gradient elution mode in a system of mobile phases: 0.1% formic acid in water/0.1% formic acid in acetonitrile, flow rate: 0.5 ml/min, column T=35° C. Mass spectrometric detection was performed with electrospray ionization in multiple reaction monitoring mode. Precursor ions, fragment ions and collision energies for each substance were selected experimentally.
(§6) A graph of dependence of the logarithmic ratio between substance's peak area and internal standard's peak area vs time was built. The dependent coefficient of this line corresponded to the elimination rate constant k, on the basis of which the in vitro clearance CLint was calculated:
(§7) Based on resulting in vitro clearance CLint values, the microsomal stability of the selected compounds for humans, rats and mice was concluded.

[2] = Microsomal stability in human liver microsomes (HLM); assay type: in vitro ADME; settings: 1 μM test compound
Description: as §1, §2, §3, §4, §5, §6, §7

[3] = Microsomal stability in rat liver microsomes (RLM); assay type: in vitro ADME; settings: rat liver microsomes 0.5 mg/ml, 1 μM compound, NADPH
Description: as §1, §2, §3, §4, §5, §6, §7

[4] = Passive membrane permeability through PAMPA artificial membrane, pH 7.4; assay type: in vitro ADME; settings: pH 7.4, 10 μmol, 20 hours at room temperature, mean of multiple measurements, read-out: PAMPA passive permeability Pe
Outline: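 Compound at 10 μmol in 0.01 M phosphate buffer pH 7.4 placed in donor wells over lecithin-phospholipid-impregnated PVDF filter, buffer in acceptor; 20 h at room temperature. Donor and acceptor levels measured by RP-HPLC-UV; Pe (cm/s) and membrane retention R (%) calculated.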

[5] = mean of multiple measurement series, ATP 10 μM, read-out: CDK13/Cyclin K IC50
[6] = mean value from several measurements, read-out: IC50 CDK13/Cyclin K

Sequence of CDK13/Cyclin K (Q14004 whole entry): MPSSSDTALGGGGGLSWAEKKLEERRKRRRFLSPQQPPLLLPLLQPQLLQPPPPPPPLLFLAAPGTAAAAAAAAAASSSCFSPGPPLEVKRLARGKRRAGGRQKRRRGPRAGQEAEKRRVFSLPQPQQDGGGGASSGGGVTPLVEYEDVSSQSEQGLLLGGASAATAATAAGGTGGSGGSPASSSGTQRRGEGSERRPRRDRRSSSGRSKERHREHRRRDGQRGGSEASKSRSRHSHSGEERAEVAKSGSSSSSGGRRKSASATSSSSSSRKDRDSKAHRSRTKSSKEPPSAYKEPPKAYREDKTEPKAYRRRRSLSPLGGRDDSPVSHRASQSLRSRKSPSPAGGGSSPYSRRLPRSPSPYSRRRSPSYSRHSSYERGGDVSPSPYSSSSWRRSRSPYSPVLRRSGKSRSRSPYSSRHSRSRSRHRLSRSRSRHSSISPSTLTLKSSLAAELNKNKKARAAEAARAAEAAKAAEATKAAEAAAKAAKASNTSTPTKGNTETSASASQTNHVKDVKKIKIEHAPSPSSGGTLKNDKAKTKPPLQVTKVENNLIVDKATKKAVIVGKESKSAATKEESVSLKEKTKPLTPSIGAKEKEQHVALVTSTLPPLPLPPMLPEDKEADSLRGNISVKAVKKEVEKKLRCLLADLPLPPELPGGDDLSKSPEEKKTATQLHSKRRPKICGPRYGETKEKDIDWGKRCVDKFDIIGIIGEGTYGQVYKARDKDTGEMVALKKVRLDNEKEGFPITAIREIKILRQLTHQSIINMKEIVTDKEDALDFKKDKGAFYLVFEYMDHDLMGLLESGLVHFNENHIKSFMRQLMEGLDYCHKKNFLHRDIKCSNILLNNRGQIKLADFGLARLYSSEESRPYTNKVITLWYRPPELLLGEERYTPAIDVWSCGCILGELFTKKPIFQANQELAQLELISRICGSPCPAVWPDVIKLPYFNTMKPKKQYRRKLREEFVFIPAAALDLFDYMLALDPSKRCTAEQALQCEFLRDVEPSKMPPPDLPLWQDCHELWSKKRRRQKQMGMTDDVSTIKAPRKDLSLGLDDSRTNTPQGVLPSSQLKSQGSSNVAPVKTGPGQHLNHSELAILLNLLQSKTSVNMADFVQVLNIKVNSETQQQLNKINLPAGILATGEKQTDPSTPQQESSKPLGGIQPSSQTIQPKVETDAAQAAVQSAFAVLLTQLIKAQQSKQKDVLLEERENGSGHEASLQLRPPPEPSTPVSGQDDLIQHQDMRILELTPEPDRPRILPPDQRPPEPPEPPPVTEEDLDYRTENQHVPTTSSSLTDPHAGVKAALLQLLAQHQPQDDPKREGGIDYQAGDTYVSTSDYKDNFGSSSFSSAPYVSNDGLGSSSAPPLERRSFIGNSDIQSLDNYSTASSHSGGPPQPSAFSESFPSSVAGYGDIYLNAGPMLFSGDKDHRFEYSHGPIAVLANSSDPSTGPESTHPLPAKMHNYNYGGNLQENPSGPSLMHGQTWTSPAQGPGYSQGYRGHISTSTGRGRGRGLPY
Sequence of CDK13/Cyclin K (O75909 whole entry partner): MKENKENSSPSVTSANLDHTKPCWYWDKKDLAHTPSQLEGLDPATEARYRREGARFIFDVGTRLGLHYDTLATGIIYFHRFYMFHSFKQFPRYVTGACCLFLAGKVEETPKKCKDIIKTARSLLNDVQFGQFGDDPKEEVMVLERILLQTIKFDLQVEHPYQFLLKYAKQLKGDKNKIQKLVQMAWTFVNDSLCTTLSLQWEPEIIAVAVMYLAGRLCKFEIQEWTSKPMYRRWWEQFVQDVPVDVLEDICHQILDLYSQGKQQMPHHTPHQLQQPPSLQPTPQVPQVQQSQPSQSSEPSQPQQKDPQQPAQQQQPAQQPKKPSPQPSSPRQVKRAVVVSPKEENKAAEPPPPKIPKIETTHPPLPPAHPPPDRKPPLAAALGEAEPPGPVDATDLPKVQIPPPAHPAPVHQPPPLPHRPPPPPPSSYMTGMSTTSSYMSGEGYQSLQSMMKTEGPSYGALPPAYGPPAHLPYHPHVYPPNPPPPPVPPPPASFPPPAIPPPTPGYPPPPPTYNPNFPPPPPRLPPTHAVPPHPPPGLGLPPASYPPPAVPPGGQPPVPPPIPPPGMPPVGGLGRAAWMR

CN1CCCc2c(-c3nc(N[C@H]4CCCNC4)ncc3C(F)(F)F)c[nH]c2C1=O [CDK7_953, 7-methyl-3-(2-{[(3S)-piperidin-3-yl]amino}-5-(trifluoromethyl)py-rimidin-4-yl)-1H,4H,5H,6H,7H, 8H-pyrrolo[2,3-c]azepin-8-one]
IC50 (CDK13/Cyclin K; [5]): 20 nM
IC50 (CDK13/Cyclin K; [6]): 5 to 50 nM
MLM Clint [1]: A (Clint < 20 μl/(min · mg of protein))
In vitro clearance CLint (HLM) [2]: A (Clint < 20 μl/(min · mg of protein))
RLM Clint [3]: A (Clint < 20 μl/(min · mg of protein))
Papp at 20 h, 10 μmol [4]: 1 to 5 ×10⁻⁶ cm/s

Cn1cc(N2CCCc3c(-c4nc(N[C@H]5CCCNC5)ncc4C(F)(F)F)c[nH]c3C2=O)cn1 [CDK7_955, 7-(1-methyl-1H-pyrazol-4-yl)-3-(2-{[(3S)-piperidin-3-yl]amino}-5-(trifluoromethyl)py-rimidin-4-yl)-1H,4H,5H,6H,7H, 8H-pyrrolo[2,3-c]azepin-8-one]
In vitro clearance CLint (HLM) [2]: A (Clint < 20 μl/(min · mg of protein))
Papp at 20 h, 10 μmol [4]: < 1 ×10⁻⁶ cm/s

Cn1cc(-n2ccc3c(-c4nc(N[C@H]5CCCNC5)ncc4C(F)(F)F)c[nH]c3c2=O)cn1 [CDK7_959, 6-(1-methyl-1H-pyrazol-4-yl)-3-(2-{[(3S)-piperidin-3-yl]amino}-5-(trifluoromethyl)py-rimidin-4-yl)-1H,6H,7H-pyrrolo[2,3-c]pyridin-7-one]
In vitro clearance CLint (HLM) [2]: A (Clint < 20 μl/(min · mg of protein))
Papp at 20 h, 10 μmol [4]: < 1 ×10⁻⁶ cm/s

O=c1c2[nH]cc(-c3nc(N[C@H]4CCCNC4)ncc3C(F)(F)F)c2ccn1Cc1ccccc1 [CDK7_961, 6-benzyl-3-(2-{[(3S)-piperidin-3-yl]amino}-5-(trifluoromethyl)py-rimidin-4-yl)-1H,6H,7H-pyrrolo[2,3-c]pyridin-7-one]
In vitro clearance CLint (HLM) [2]: A (Clint < 20 μl/(min · mg of protein))
Papp at 20 h, 10 μmol [4]: 1 to 5 ×10⁻⁶ cm/s

Cn1cc(N2CCCc3c(-c4nc(N[C@H]5CCC(C)(C)NC5)ncc4C(F)(F)F)c[nH]c3C2=O)cn1 [CDK7_1122, 3-(2-{[(3S)-6,6-dimethylpiperidin-3-yl]amino}-5-(trifluoromethyl)py-rimidin-4-yl)-7-(1-methyl-1H-pyrazol-4-yl)-1H,4H,5H,6H,7H, 8H-pyrrolo[2,3-c]azepin-8-one]
In vitro clearance CLint (HLM) [2]: A (Clint < 20 μl/(min · mg of protein))
Papp at 20 h, 10 μmol [4]: 1 to 5 ×10⁻⁶ cm/s

Cn1cc(-n2ccc3c(-c4nc(N[C@H]5CCC(C)(C)NC5)ncc4C(F)(F)F)c[nH]c3c2=O)cn1 [CDK7_1123, 3-(2-{[(3S)-6,6-dimethylpiperidin-3-yl]amino}-5-(trifluoromethyl)py-rimidin-4-yl)-6-(1-methyl-1H-pyrazol-4-yl)-1H,6H,7H-pyrrolo[2,3-c]pyridin-7-one]
IC50 (CDK13/Cyclin K; [5]): 25 nM
IC50 (CDK13/Cyclin K; [6]): 5 to 50 nM
In vitro clearance CLint (HLM) [2]: A (Clint < 20 μl/(min · mg of protein))
Papp at 20 h, 10 μmol [4]: < 1 ×10⁻⁶ cm/s

O=C1c2[nH]cc(-c3nc(NC4CCCNC4)ncc3C(F)(F)F)c2CCCN1c1nccs1 (stereo not shown) [CDK7_1172]
In vitro clearance CLint (HLM) [2]: B (50 μl/(min · mg of protein) > Clint > 20 μl/(min · mg of protein))
Papp at 20 h, 10 μmol [4]: 1 to 5 ×10⁻⁶ cm/s

O=C1c2[nH]cc(-c3nc(N[C@H]4CCCNC4)ncc3C(F)(F)F)c2CCCN1c1ccccn1 [CDK7_1176, 3-(2-{[(3S)-piperidin-3-yl]amino}-5-(trifluoromethyl)py-rimidin-4-yl)-7-(pyridin-2-yl)-1H,4H,5H,6H,7H, 8H-pyrrolo[2,3-c]azepin-8-one]
In vitro clearance CLint (HLM) [2]: A (Clint < 20 μl/(min · mg of protein))
Papp at 20 h, 10 μmol [4]: 1 to 5 ×10⁻⁶ cm/s

CN1CCCc2c(-c3nc(N[C@H]4CCC(C)(C)NC4)ncc3C(F)(F)F)c[nH]c2C1=O [CDK7_1187, 3-(2-{[(3S)-6,6-dimethylpiperidin-3-yl]amino}-5-(trifluoromethyl)py-rimidin-4-yl)-7-methyl-1H,4H,5H,6H,7H, 8H-pyrrolo[2,3-c]azepin-8-one]
IC50 (CDK13/Cyclin K; [5]): 81 nM
IC50 (CDK13/Cyclin K; [6]): 50 to 200 nM
MLM Clint [1]: A (Clint < 20 μl/(min · mg of protein))
In vitro clearance CLint (HLM) [2]: B (50 μl/(min · mg of protein) > Clint > 20 μl/(min · mg of protein))
RLM Clint [3]: A (Clint < 20 μl/(min · mg of protein))
Papp at 20 h, 10 μmol [4]: 1 to 5 ×10⁻⁶ cm/s

O=C1c2[nH]cc(-c3nc(NC4CCCNC4)ncc3C(F)(F)F)c2CCCN1C1CC1 (stereo not shown) [CDK7_1188]
In vitro clearance CLint (HLM) [2]: A (Clint < 20 μl/(min · mg of protein))
RLM Clint [3]: A (Clint < 20 μl/(min · mg of protein))
Papp at 20 h, 10 μmol [4]: 1 to 5 ×10⁻⁶ cm/s

CC1(C)CC[C@H](Nc2ncc(C(F)(F)F)c(-c3c[nH]c4c3CCCN(C3CC3)C4=O)n2)CN1 [CDK7_1225, 7-cyclopropyl-3-(2-{[(3S)-6,6-dimethylpiperidin-3-yl]amino}-5-(trifluoromethyl)py-rimidin-4-yl)-1H,4H,5H,6H,7H, 8H-pyrrolo[2,3-c]azepin-8-one]
IC50 (CDK13/Cyclin K; [5]): 203 nM
IC50 (CDK13/Cyclin K; [6]): > 200 nM
MLM Clint [1]: A (Clint < 20 μl/(min · mg of protein))
In vitro clearance CLint (HLM) [2]: A (Clint < 20 μl/(min · mg of protein))
RLM Clint [3]: A (Clint < 20 μl/(min · mg of protein))
Papp at 20 h, 10 μmol [4]: 1 to 5 ×10⁻⁶ cm/s

CC1(C)CC[C@H](Nc2ncc(C(F)(F)F)c(-c3c[nH]c4c3CCCN(CC3CC3)C4=O)n2)CN1 [CDK7_1227, 7-(cyclopropylmeth-yl)-3-(2-{[(3S)-6,6-dimethylpiperidin-3-yl]amino}-5-(trifluoromethyl)py-rimidin-4-yl)-1H,4H,5H,6H,7H, 8H-pyrrolo[2,3-c]azepin-8-one]
RLM Clint [3]: A (Clint < 20 μl/(min · mg of protein))
Papp at 20 h, 10 μmol [4]: 5 to 10 ×10⁻⁶ cm/s

CC(C)N1CCCc2c(-c3nc(N[C@H]4CCC(C)(C)NC4)ncc3C(F)(F)F)c[nH]c2C1=O [CDK7_1229, 3-(2-{[(3S)-6,6-dimethylpiperidin-3-yl]amino}-5-(trifluoromethyl)py-rimidin-4-yl)-7-(propan-2-yl)-1H,4H,5H,6H,7H, 8H-pyrrolo[2,3-c]azepin-8-one]
IC50 (CDK13/Cyclin K; [5]): 242 nM
IC50 (CDK13/Cyclin K; [6]): > 200 nM
MLM Clint [1]: A (Clint < 20 μl/(min · mg of protein))
In vitro clearance CLint (HLM) [2]: B (50 μl/(min · mg of protein) > Clint > 20 μl/(min · mg of protein))
RLM Clint [3]: A (Clint < 20 μl/(min · mg of protein))
Papp at 20 h, 10 μmol [4]: 5 to 10 ×10⁻⁶ cm/s

CC1CCc2c(-c3nc(N[C@H]4CCCNC4)ncc3C(F)(F)F)c[nH]c2C(=O)N1C (stereo partly drawn) [CDK7_1254, 6,7-dimethyl-3-(2-{[(3S)-piperidin-3-yl]amino}-5-(trifluoromethyl)py-rimidin-4-yl)-1H,4H,5H,6H,7H, 8H-pyrrolo[2,3-c]azepin-8-one]
In vitro clearance CLint (HLM) [2]: A (Clint < 20 μl/(min · mg of protein))
Papp at 20 h, 10 μmol [4]: 1 to 5 ×10⁻⁶ cm/s

CCN1CCCc2c(-c3nc(N[C@H]4CCC(C)(C)NC4)ncc3C(F)(F)F)c[nH]c2C1=O [CDK7_1259, 3-(2-{[(3S)-6,6-dimethylpiperidin-3-yl]amino}-5-(trifluoromethyl)py-rimidin-4-yl)-7-ethyl-1H,4H,5H,6H,7H, 8H-pyrrolo[2,3-c]azepin-8-one]
RLM Clint [3]: A (Clint < 20 μl/(min · mg of protein))
Papp at 20 h, 10 μmol [4]: 1 to 5 ×10⁻⁶ cm/s
